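Here, GI50 denotes the concentration required for 50% inhibition of growth. TGI: concentration producing complete growth inhibition.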
Legend:
Assay in all cases: DTP human tumour cell line panel, 384-well format
[1] = tested on: 786-0 renal
[2] = tested on: A498 renal
[3] = tested on: A549 NSCLC
[4] = tested on: ACHN renal
[5] = tested on: BT-549 breast
[6] = tested on: CAKI-1 renal
[7] = tested on: COLO 205 colon
[8] = tested on: DU-145 prostate
[9] = tested on: EKVX NSCLC
[10] = tested on: HCC-2998 colon
[11] = tested on: HCT-116 colon
[12] = tested on: HCT-15 colon
[13] = tested on: HL-60(TB) leukemia
[14] = tested on: HOP-62 NSCLC
[15] = tested on: HOP-92 NSCLC
[16] = tested on: HS 578T breast
[17] = tested on: HT29 colon
[18] = tested on: IGROV1 ovarian
[19] = tested on: K-562 leukemia
[20] = tested on: KM12 colon
[21] = tested on: LOX IMVI melanoma
[22] = tested on: M14 melanoma
[23] = tested on: MALME-3M melanoma
[24] = tested on: MCF7 breast
[25] = tested on: MDA-MB-231 breast
[26] = tested on: MDA-MB-435 melanoma
[27] = tested on: MDA-MB-468 breast
[28] = tested on: MOLT-4 leukemia
[29] = tested on: NCI-H226 lung
[30] = tested on: NCI-H23 lung
[31] = tested on: NCI-H322M lung
[32] = tested on: NCI-H460 NSCLC
[33] = tested on: NCI-H522 lung
[34] = tested on: NCI/ADR-RES ovarian
[35] = tested on: OVCAR-3 ovarian
[36] = tested on: OVCAR-4 ovarian
[37] = tested on: OVCAR-8 ovarian
[38] = tested on: PC-3 prostate
[39] = tested on: RPMI-8226 leukemia
[40] = tested on: RXF 393 renal
[41] = tested on: SF-268 CNS
[42] = tested on: SF-295 CNS
[43] = tested on: SF-539 CNS
[44] = tested on: SK-MEL-28 melanoma
[45] = tested on: SK-MEL-5 melanoma
[46] = tested on: SK-OV-3 ovarian
[47] = tested on: SN12C renal
[48] = tested on: SNB-19 CNS
[49] = tested on: SNB-75 CNS
[50] = tested on: SR leukemia
[51] = tested on: SW-620 colon
[52] = tested on: T-47D breast
[53] = tested on: TK-10 renal
[54] = tested on: U251 glioblastoma
[55] = tested on: UACC-257 melanoma
[56] = tested on: UACC-62 melanoma
[57] = tested on: UO-31 renal

O=C(C1CC1)N1CC[C@@H](Cc2n[nH]c(=O)n2-c2ccc(-c3ccc4occc4c3)cc2)C1
GI50 [1]: 25.6 µM | TGI [1]: > 100 µM | GI50 [2]: 29.4 µM | TGI [2]: > 100 µM | GI50 [3]: 23.4 µM | TGI [3]: > 100 µM | GI50 [4]: 24.6 µM | TGI [4]: > 100 µM | GI50 [5]: 13.3 µM | TGI [5]: 72.4 µM | GI50 [6]: 32.4 µM | TGI [6]: > 100 µM | GI50 [7]: 42.2 µM | TGI [7]: > 100 µM | GI50 [8]: 35.3 µM | TGI [8]: > 100 µM | GI50 [9]: 22.9 µM | TGI [9]: > 100 µM | GI50 [10]: 25.5 µM | TGI [10]: > 100 µM | GI50 [11]: 20.2 µM | TGI [11]: 48 µM | GI50 [12]: 34.3 µM | TGI [12]: > 100 µM | GI50 [13]: 0.0567 µM | TGI [13]: 21.8 µM | GI50 [14]: 19.1 µM | TGI [14]: 75.7 µM | GI50 [15]: 37.5 µM | TGI [15]: > 100 µM | GI50 [16]: 32.5 µM | TGI [16]: > 100 µM | GI50 [17]: 29.2 µM | TGI [17]: > 100 µM | GI50 [18]: 34.3 µM | TGI [18]: > 100 µM | GI50 [19]: 13.5 µM | TGI [19]: 27.2 µM | GI50 [20]: 39.6 µM | TGI [20]: > 100 µM | GI50 [21]: 16.9 µM | TGI [21]: 38.6 µM | GI50 [22]: 60.9 µM | TGI [22]: > 100 µM | GI50 [23]: 30.9 µM | TGI [23]: 96.6 µM | GI50 [24]: 19.9 µM | TGI [24]: 92.4 µM | GI50 [25]: 39.6 µM | TGI [25]: > 100 µM | GI50 [26]: 31.2 µM | TGI [26]: > 100 µM | GI50 [27]: 15.5 µM | TGI [27]: 45.5 µM | GI50 [28]: 11.5 µM | TGI [28]: 23.7 µM | GI50 [29]: 18.5 µM | TGI [29]: 58.8 µM | GI50 [30]: 29.6 µM | TGI [30]: > 100 µM | GI50 [31]: 36.2 µM | TGI [31]: > 100 µM | GI50 [32]: 29.7 µM | TGI [32]: > 100 µM | GI50 [33]: 25.3 µM | TGI [33]: 86.6 µM | GI50 [34]: 22.3 µM | TGI [34]: 85.1 µM | GI50 [35]: 21.6 µM | TGI [35]: 59 µM | GI50 [36]: 33.3 µM | TGI [36]: > 100 µM | GI50 [37]: 36.4 µM | TGI [37]: > 100 µM | GI50 [38]: 42.9 µM | TGI [38]: > 100 µM | GI50 [39]: 0.066 µM | TGI [39]: 17.9 µM | GI50 [40]: 20.9 µM | TGI [40]: 59.4 µM | GI50 [41]: 26 µM | TGI [41]: > 100 µM | GI50 [42]: 18.1 µM | TGI [42]: 57.5 µM | GI50 [43]: 53.5 µM | TGI [43]: > 100 µM | GI50 [44]: 31.1 µM | TGI [44]: > 100 µM | GI50 [45]: 15.7 µM | TGI [45]: 29.6 µM | GI50 [46]: 33.9 µM | TGI [46]: > 100 µM | GI50 [47]: 30 µM | TGI [47]: > 100 µM | GI50 [48]: 50.1 µM | TGI [48]: > 100 µM | GI50 [49]: 34.8 µM | TGI [49]: > 100 µM | GI50 [50]: 24.6 µM | TGI [50]: 64.4 µM | GI50 [51]: 57.6 µM | TGI [51]: > 100 µM | GI50 [52]: 29.8 µM | TGI [52]: > 100 µM | GI50 [53]: 21.7 µM | TGI [53]: 60.1 µM | GI50 [54]: 28 µM | TGI [54]: > 100 µM | GI50 [55]: 38.5 µM | TGI [55]: 91.3 µM | GI50 [56]: 34.2 µM | TGI [56]: > 100 µM | GI50 [57]: 14.9 µM | TGI [57]: > 100 µM
